Laboratory results from US20250011792A1, “IRAP INHIBITORS FOR USE IN THE TREATMENT OF INFLAMMATORY DISEASES” (INSTITUT NATIONAL DE LA SANTÉ ET DE LA RECHERCHE MÉDICALE, priority 2021, published 2025).

Assays:
[1] = tested on: IRAP wt mice; assay: Mouse ear challenge with arachidonic acid, cytokines quantified in ear tissue homogenates; type: in vivo; details: 1 μmol/kg intravenously at 24 h and 15 min prior to ear challenge; ear tissue homogenates normalized to total protein; FIG. 3
Procedure: IRAP wt mice were injected i.v. with 6 μg HI-419 or vehicle 24 h and 15 min prior to ear challenge. Cytokine concentrations were quantified in ear tissue homogenates and normalized to total protein concentration.
Twenty microliters arachidonic acid (AA) (30 mg/ml in acetone) were applied to the inner and outer surface of one mouse ear, whereas the other ear was left untreated.
One hour after AA application, mice were sacrificed and ears were collected. The ear biopsies were dissociated using the pre-set “Protein” protocol of gentleMACS™ Octo Dissociator (Milteniy Biotec) in 800 μl ice-cold homogenization buffer [(PBS containing 0.4M NaCl, 0.05% Tween-20, 10 mM EDTA and protease inhibitor cocktail complete (Roche)]. The homogenates were cleared by 10 min centrifugation at 5000×g, and the total protein concentration determined in a BCA assay. Histamine or cytokines in the supernatant were quantified as described below.
(§1) Supernatants were collected and histamine was quantified using the Histamine Dynamic HTRF kit (Cisbio). TNF-α, IL-6, or IL-10 were quantified using specific cytokine ELISA kits. Kits were used according to the manufacturer's instructions.
(§2) Vehicle or inhibitor at a dose of 1 μmol/kg was administered intravenously at 24 h and 15 min prior to the ear challenge. […] We therefore hypothesized that in addition to blocking its catalytic activity, HI-419 may also affect the stability of IRAP.

[2] = tested on: mast cells; assay: Cytokine secretion by mast cells treated with IRAP inhibitors for 24 h before ionomycin/PMA activation; type: cell-based, mouse; details: mast cells treated for 24 h prior to ionomycin/PMA activation; data not shown
Procedure: PCMCs were stimulated with 1 uM ionomycin/10 nM PMA or 100 ng/ml LPS at 37° C. for 6 h for cytokine secretion or with ionomycin/PMA or 10 ug/ml 48/80 for 30 min for histamine measurement.
as §1
Considering the aminopeptidase function of TRAP, we wondered if its catalytic activity was required for efficient cytokine secretion. To test this, we treated mast cells with the IRAP inhibitors HFI-419, 4u 55 and 22b (a gift from E. Stratikos) for 24 h prior to ionomycin/PMA activation.

[3] = target: T1, IRAP (Mus musculus, UniProt Q8C129); assay: Intracellular flow cytometry staining of IRAP expression after HFI-419 treatment; type: cell-based; details: starting from 24 h of treatment, data not shown
T1 construct: endogenous in cells; host or cells: primary mouse mast cells (BMMC / peritoneal cell-derived mast cells) from wt mice
T1 sequence (Q8C129 1-1025): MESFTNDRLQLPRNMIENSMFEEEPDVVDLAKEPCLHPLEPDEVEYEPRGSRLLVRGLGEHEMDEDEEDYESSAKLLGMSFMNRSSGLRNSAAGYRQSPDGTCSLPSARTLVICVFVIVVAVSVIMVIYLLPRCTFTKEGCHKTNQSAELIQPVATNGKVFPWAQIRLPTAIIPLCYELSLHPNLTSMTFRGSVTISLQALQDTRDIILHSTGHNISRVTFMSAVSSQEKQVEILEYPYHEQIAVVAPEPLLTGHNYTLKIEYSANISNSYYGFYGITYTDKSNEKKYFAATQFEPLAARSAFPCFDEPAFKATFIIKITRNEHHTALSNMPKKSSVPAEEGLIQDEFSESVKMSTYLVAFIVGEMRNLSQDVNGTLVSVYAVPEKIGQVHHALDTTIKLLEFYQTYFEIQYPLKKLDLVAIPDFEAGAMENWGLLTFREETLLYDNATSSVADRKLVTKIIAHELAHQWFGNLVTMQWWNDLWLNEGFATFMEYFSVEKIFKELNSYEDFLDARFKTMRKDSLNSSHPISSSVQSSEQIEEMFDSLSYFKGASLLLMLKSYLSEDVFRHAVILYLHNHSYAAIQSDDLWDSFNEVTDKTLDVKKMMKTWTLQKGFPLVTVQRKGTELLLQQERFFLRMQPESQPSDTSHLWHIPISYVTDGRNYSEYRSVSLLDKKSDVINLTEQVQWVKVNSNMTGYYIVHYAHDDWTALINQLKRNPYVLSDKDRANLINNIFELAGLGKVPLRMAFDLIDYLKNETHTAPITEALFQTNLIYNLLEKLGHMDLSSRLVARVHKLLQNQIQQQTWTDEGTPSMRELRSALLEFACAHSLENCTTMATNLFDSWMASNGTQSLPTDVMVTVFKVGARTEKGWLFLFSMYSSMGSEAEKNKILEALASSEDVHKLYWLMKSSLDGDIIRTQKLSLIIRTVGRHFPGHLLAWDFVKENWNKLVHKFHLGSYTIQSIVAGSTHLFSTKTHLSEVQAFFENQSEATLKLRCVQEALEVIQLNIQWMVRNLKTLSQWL
Procedure: (§3) For TNF-α surface staining, PCMCs were stimulated with 1 μM ionomycin/10 nM PMA or 100 ng/ml LPS at 37° C. for 4 h in the presence of TAPI-1, washed with ice-cold PBS, and incubated at 4° C. with Fcblock (Miltenyi) followed by fluorochrome-conjugated CD117, FcεRI and TNF-α antibodies diluted in PBS-1% BSA. Intracellular staining of cytokines, IRAP and VAMP3 was performed using the BD intracellular staining kit and suitable species-specific fluorescent secondary antibodies (Life technologies).
as §2

[4] = tested on: VAMP3; assay: Intracellular flow cytometry staining of VAMP3 expression after HFI-419 treatment; type: cell-based, mouse; details: starting from 24 h of treatment, data not shown
Procedure: as §3, §2

[5] = tested on: wt cells (mast cells); assay: TNF-α secretion in the presence of endocytosis inhibitors; type: cell-based, mouse; details: wt versus IRAPko cells; data not shown
[6] = tested on: IRAP; assay: Subcellular localization of IRAP under endocytosis inhibition after LPS activation; type: cell-based, mouse; details: after three hours of LPS activation; data not shown

expression level of IRAP [3]	expression level of IRAP ([3]; listed as HI-419)	SMILES	IL-6 secretion in challenged ear versus vehicle-treated animals [1]	IL-10 secretion in challenged ear versus vehicle-treated animals [1]	TNF-α secretion in challenged ear versus vehicle-treated animals [1]	inhibition of IRAP-dependent cytokine secretion in vitro [2]	expression level of VAMP3 [4]	TNF-α secretion [5]	IRAP subcellular localization (re-internalization) [6]
decreased expression levels	reduced	CCOC(=O)C1=C(NC(C)=O)Oc2cc(O)ccc2C1c1cccnc1 (racemic) [HFI-419, (±)-Ethyl-2-acetamido-7-hydroxy-4-(pyridin-3-yl)-4H-chromene-3-carboxylate]	significantly less	unaffected	significantly less	significant inhibition	decreased expression levels	–	–
–	–	CS(=O)(=O)N1CCN(Cc2cc3nc(-c4cccc5[nH]ncc45)nc(N4CCOCC4)c3s2)CC1 [GDC-0941]	–	–	–	–	–	reduce TNF-α secretion specifically in wt cells	–
–	–	O=C(N/N=C/c1ccc(O)c(O)c1)c1cc2ccccc2cc1O [dynasore]	–	–	–	–	–	reduce TNF-α secretion specifically in wt cells	strong plasma membrane staining
